Test results as given in PMC10518257 (Nature Cancer, 2023).

Target: T1, panel of 255 (vepafestinib) or 256 (all other inhibitors) recombinant kinases (Homo sapiens, UniProt Q92630)
T1 construct: purchased Carna Biosciences
Assay: Kinase selectivity profiling at a single concentration (Carna Biosciences)
Type: biochemical
Details: 22 nM

T1 sequence (Q92630 whole entry): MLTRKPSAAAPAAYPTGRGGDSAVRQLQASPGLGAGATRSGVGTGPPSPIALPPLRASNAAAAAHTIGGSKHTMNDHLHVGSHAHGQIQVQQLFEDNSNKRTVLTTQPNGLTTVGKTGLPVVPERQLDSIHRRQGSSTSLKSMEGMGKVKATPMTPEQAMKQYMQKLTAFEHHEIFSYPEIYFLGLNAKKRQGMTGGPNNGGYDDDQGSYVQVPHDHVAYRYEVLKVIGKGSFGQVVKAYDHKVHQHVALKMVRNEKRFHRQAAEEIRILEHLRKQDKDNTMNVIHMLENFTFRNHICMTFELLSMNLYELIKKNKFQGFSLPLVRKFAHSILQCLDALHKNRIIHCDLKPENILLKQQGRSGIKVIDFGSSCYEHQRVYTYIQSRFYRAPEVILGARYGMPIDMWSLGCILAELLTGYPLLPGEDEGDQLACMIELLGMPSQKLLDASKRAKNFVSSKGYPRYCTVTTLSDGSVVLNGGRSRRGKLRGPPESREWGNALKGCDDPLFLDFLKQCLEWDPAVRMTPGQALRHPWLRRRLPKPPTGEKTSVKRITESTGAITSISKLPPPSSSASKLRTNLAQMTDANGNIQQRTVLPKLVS

## COc1ccc(CN2C3CC2CN(c2ccc(-c4cc(OCC(C)(C)O)cn5ncc(C#N)c45)cn2)C3)cn1 [Selpercatinib]
  % Inhibiton DYRK2: 17.3%
